Laboratory results published in patent US11014908B2, “Chemical compounds” (Pfizer Inc., priority 2018, dated 2021).

How the values were obtained:
[1] = biological target: T1, Hb in dog whole blood (Canis lupus familiaris, UniProt P60524+P60529); experiment: Whole blood oxygen affinity assay (Hemox analyzer), dog blood; conditions: 1 mM compound, 1 hour at 25 C, relative to DMSO
T1 construct: measured in human, dog, and mouse whole blood; from tissue; host or cells: dog whole blood
Excerpt: Whole Blood Oxygen Affinity Assay
Oxygen affinity is a marker of the ability of Hb to bind and release oxygen in solution. It can be determined in whole blood by measuring the percentage of oxygenated and deoxygenated Hb present at a given oxygen concentration. Oxygen affinity is expressed as the p50, the partial pressure of oxygen at which 50% of the Hb in solution has oxygen bound, or the p20, the partial pressure of oxygen at which 20% of the Hb in solution has oxygen bound.
To determine the effects of compounds of the invention on oxygen affinity the p50 and p20 were measured in human, dog, and mouse whole blood using a Hemeox Analyzer (TCS Scientific). The blood was spiked with a compound of the invention to a concentration of 1 mM and incubated for 1 hour at 25 C with constant rotation. A concentration of 1 mM of compound was selected to approximate 20% hemoglobin occupancy in whole blood. Controls with the same concentration of DMSO, but no compound were incubated in the same way at the same time. Following incubation, samples were immediately assayed for oxygen affinity using the Hemox analyzer. […] Once samples had reached an pO2 of >150 torr, the measurement was initiated by switching to N2, and the percent oxyhemoglobin as a function of partial pressure was recorded. The p20 and p50 of each sample were recorded from the instrument readout. […]

[2] = biological target: human HbA (Homo sapiens, UniProt P68871+P69905); experiment: Co-crystallization with HbA; conditions: 1.85 Å co-crystal structure with human HbA
Excerpt: Co-Crystallization with HbA
The binding of the compound of Example 58 to hemoglobin (Hb) was further investigated through co-crystallization experiments. Given the structural and functional similarity of HbS and HbA, and the large quantity of material needed for structural studies, purified HbA was utilized for these studies.
HbA with Example 58 was crystallized according to published protocols (Lee et al. “Crowning proteins: modulating the protein surface properties using crown ethers”, Angew Chem Int Ed Engl 2014; 53(48):13054-13058). Briefly, 20 mg/mL HbA in 20 mM Tris-HCl (pH 8.0) was mixed with equal volume of 50 mM 18-crown-6 solution and incubated at 20° C. for 20 minutes. Example 58 was then added to a final concentration of 1.5 mM and further incubated for an additional 1 hr. Crystallization was performed at 20° C. using hanging drop vapor diffusion method by mixing equal volumes of protein and reservoir solution containing 0.1 M Tris-HCl (pH 8.0), 0.2 M Li2SO4 and 30-32% PEG 3350. Crystals grew to their maximum size in ˜2 days and the crystals were further soaked overnight with 10 mM Example 58. Diffraction data were collected at the Argonne National Laboratory Advanced Photon Source, beamline 17-ID. The data was processed using autoPROC (Global Phasing Limited) and the structure was solved using 3WHM (PDB code) as a starting model. […]

## C[C@H](Oc1cc2cc(F)ccc2nc1N)c1nc(O)ccc1-n1cccn1 [Example 58, 6-{(1S)-1-[(2-amino-6-fluoroquinolin-3-yl)oxy]ethyl}-5-(1H-pyrazol-1-yl)pyridin-2-ol]
[1]
  Reduction in p20 (%) Dog: 10 ± 6%
  Reduction in p50 (%) Dog: 6 ± 6%
[2]
  Hb conformation bound in co-crystal structure: binds to the oxygenated (R state) conformation of Hb
